Columns and labels:
[1] = Example 1: body fat mass by MRI after 25 days; type: in vivo, mouse (C57BL/6J male, 60% HFD DIO); conditions: for body fat mass and body fat ratio (in words): after 25 days, relative to control group G2; for Body weight / Body fat ratio / Fat (body fat mass): mean, HTD1801 200 mpk, empagliflozin 10 mpk in last 2 weeks (300/15 mpk before), semaglutide 10 nmol/kg s.c. Q3D; for Body weight: after 25 days of administration (Table 5); for Body fat ratio / Fat (body fat mass): after 25 days of administration
Text: (§1) After 5-week-old C57BL/6J male mice were acclimatized for 1 week, the weight of each mouse was weighed, and the mice were randomly divided into a control group and a model group by taking the weight as a main index, where 12 mice in the control group were fed with common feed (CD), and the mice in the remaining model group were fed with 60% high-fat feed (60% HFD) for 10-12 weeks to construct a DIO obesity model, with the average body weight being not less than 40 g. The mice fed with 60% HFD were grabbed and acclimatized with a solvent for 3 days, where the acclimatization with a solvent was performed by oral gavage of 0.5% CMC-Na, twice daily.
(§2) The food intake, the body weight, the body fat ratio, and the insulin level of the mice were respectively measured, followed by fasting blood glucose level, and the mice were randomly grouped according to Table 3 by taking the body weight as an index, and the remaining ungrouped mice were euthanized. After grouping, each group of mice was administered according to Table 3, the day of administration was defined as DO, and the administration volume of each drug was determined based on the results obtained by the calculation of 5 μL/g× mouse body weight (g).
(§3) For the combined administration group, the total administration volume was the sum of the administration volumes of two single drugs, and the administration sequence and the administration time were kept consistent at each administration. The mice were continuously fed with high-fat feed during the administration period until the administration was finished. During administration, 2 food intakes were measured per week (difference in feed weights at an interval of 24 h was measured); each group of mice was weighed once daily; postprandial blood glucose levels were measured weekly; blood was collected from the tail tip on day 6 and day 20, respectively, so as to measure fasting blood glucose levels once (blood was collected after fasting from 8:00 am to […]); on day 25 of administration, the body fat ratio and the lean mass of each group of mice were measured by MRI (the measurement period was kept consistent with that before grouping); after 4 weeks of administration intervention (day 28), each group of mice was fasted for 6 h and subjected to OGTT (0 min, 15 min, 30 min, 60 min, 90 min, 120 min) to detect their blood glucose levels, and meanwhile subjected to blood sampling via submaxillary vein (0 min, 15 min, 30 min, about 30 μL of blood sampled each time), and then the blood plasma was separated for detecting the insulin level by ELISA, where the separated blood plasma was more than 10 μL; the next day (D29) at the end of administration was set as the test endpoint, and the mice were fasted for 6 h in the morning and subjected to fasting blood glucose level measurement; subsequently, the mice were euthanized with CO2, blood was collected from the heart of each mouse for analysis, and each group of mice was dissected; the liver and subcutaneous, epididymal and mesenteric fat was collected, photographed and weighed, respectively.
After 25 days of administration, the body weight, the body fat mass and the body fat ratio of each animal in groups G1 to G6 were measured and averaged for each group, and the results are shown in Table 5 below, FIG. 4 and FIG. 5.

[2] = Example 1: liver, abdominal and subcutaneous fat weight after 28 days; type: in vivo, mouse (C57BL/6J male, 60% HFD DIO); conditions: mean, HTD1801 200 mpk, empagliflozin 10 mpk in last 2 weeks (300/15 mpk before)
Text: as §1, §2, §3
After 28 days of administration, the mice were euthanized with CO2 the next day, and the mice of groups G1 to G5 were dissected, and liver and abdominal fat (including epididymis and mesentery), and subcutaneous fat were collected, photographed and weighed, respectively, and the results are shown in Table 6 below, FIG. 6, FIG. 7, and FIG. 8.

| SMILES | body fat mass and body fat ratio (in words) [1] | Body weight [1] [g] | Body fat ratio [1] [%] | Fat (body fat mass) [1] [g] | Epididymal fat weight [2] [g] | Liver weight [2] [g] | Mesenteric fat weight [2] [g] | Subcutaneous fat weight [2] [g] |
| --- | --- | --- | --- | --- | --- | --- | --- | --- |
| OC[C@H]1O[C@@H](c2ccc(Cl)c(Cc3ccc(O[C@H]4CCOC4)cc3)c2)[C@H](O)[C@@H](O)[C@@H]1O [Empagliflozin, empagliflozin] | increased | 47.53 | 49.13 | 23.36 | 2.82 | 1.34 | 1.20 | 3.02 |
| COc1ccc2cc3[n+](cc2c1OC)CCc1cc2c(cc1-3)OCO2.C[C@H](CCC(=O)[O-])[C@H]1CC[C@H]2[C@@H]3[C@@H](O)C[C@@H]4C[C@H](O)CC[C@]4(C)[C@H]3CC[C@]12C [HTD1801, berberine ursodeoxycholate] | decreased | 40.10 | 40.12 | 16.23 | 2.31 | 0.98 | 0.78 | 2.32 |
